Data reported in the supplement of paper PMC10307832.

Experiments:
Assay in all cases: relative viability (nuclei count vs DMSO), 5 days (fraction); higher = more cells survive
XMD8-85 + Bortezomib = compound: CN1CCN(CC1)C2=CC(=C(C=C2)NC3=NC=C4C(=N3)N(C5=CC=CC=C5C(=O)N4C)C)OC [XMD8-85] + CC(C)C[C@H](NC(=O)[C@H](Cc1ccccc1)NC(=O)c1cnccn1)B(O)O [Bortezomib] (partner 0.002 µM)
Method in brief: (§1)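 A single step with final 0.05% Triton X-100, 1% formaldehyde and 1 ug/ml Hoechst fixed the cells and stained nuclei 5 days after treatment. Lung cancer cell lines in 1536-well plates had been treated by pin tool the day after seeding with one drug alone or a fixed anchor-drug dose plus five library-drug doses (not always all listed) in √10 steps, and nuclei were counted on 4× images. Relative viability is the ratio of nuclei in treated wells to nuclei in vehicle wells, taken as the median of duplicate plates.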

XMD8-85 + Linsitinib = compound: CN1CCN(CC1)C2=CC(=C(C=C2)NC3=NC=C4C(=N3)N(C5=CC=CC=C5C(=O)N4C)C)OC [XMD8-85] + C[C@]1(O)C[C@@H](c2nc(-c3ccc4ccc(-c5ccccc5)nc4c3)c3c(N)nccn32)C1 [Linsitinib] (partner 1 µM)
Method in brief: as §1

4EGI-1 + Palbociclib = compound: O=C(O)C(Cc1ccccc1[N+](=O)[O-])=NNc1nc(-c2ccc(Cl)c(Cl)c2)cs1 (mixture of isomers) [4EGI-1] + CC(=O)c1c(C)c2cnc(Nc3ccc(N4CCNCC4)cn3)nc2n(C2CCCC2)c1=O [Palbociclib] (partner 0.5 µM)
Method in brief: as §1

4EGI-1 + Dasatinib = compound: O=C(O)C(Cc1ccccc1[N+](=O)[O-])=NNc1nc(-c2ccc(Cl)c(Cl)c2)cs1 (mixture of isomers) [4EGI-1] + Cc1nc(Nc2ncc(C(=O)Nc3c(C)cccc3Cl)s2)cc(N2CCN(CCO)CC2)n1 [Dasatinib] (partner 0.075 µM)
Method in brief: as §1

| Cell Line | relative viability (XMD8-85 + Bortezomib; first compound 0.08 µM) | relative viability (XMD8-85 + Bortezomib; first compound 0.253 µM) | relative viability (XMD8-85 + Bortezomib; first compound 0.8 µM) | relative viability (XMD8-85 + Bortezomib; first compound 2.53 µM) | relative viability (XMD8-85 + Bortezomib; first compound 8 µM) | relative viability (XMD8-85 + Linsitinib; first compound 0.08 µM) | relative viability (XMD8-85 + Linsitinib; first compound 0.253 µM) | relative viability (XMD8-85 + Linsitinib; first compound 0.8 µM) | relative viability (XMD8-85 + Linsitinib; first compound 2.53 µM) | relative viability (XMD8-85 + Linsitinib; first compound 8 µM) | relative viability (4EGI-1 + Palbociclib; first compound 0.5 µM) | relative viability (4EGI-1 + Palbociclib; first compound 1.581 µM) | relative viability (4EGI-1 + Palbociclib; first compound 5 µM) | relative viability (4EGI-1 + Palbociclib; first compound 15.81 µM) | relative viability (4EGI-1 + Palbociclib; first compound 50 µM) | relative viability (4EGI-1 + Dasatinib; first compound 0.5 µM) | relative viability (4EGI-1 + Dasatinib; first compound 5 µM) | relative viability (4EGI-1 + Dasatinib; first compound 15.81 µM) | relative viability (4EGI-1 + Dasatinib; first compound 50 µM) | relative viability (4EGI-1 + Dasatinib; first compound 1.581 µM) |
| --- | --- | --- | --- | --- | --- | --- | --- | --- | --- | --- | --- | --- | --- | --- | --- | --- | --- | --- | --- | --- |
| NCI-H460 | 0.924 | 0.999 | 1.2 | 0.956 | 0.75 | 0.594 | 0.904 | 0.868 | 0.821 | 0.262 | 0.169 | 0.05 | 0.245 | 0.141 | 0.0263 | 0.447 | 0.515 | 0.307 | 0.0847 | – |
| LXF-289 | 0.977 | 0.999 | 0.97 | 1.04 | 0.978 | 0.916 | 0.927 | 0.964 | 1.01 | 0.883 | 0.603 | 0.602 | 0.582 | 0.553 | 0.518 | 0.282 | 0.249 | 0.188 | 0.102 | 0.215 |
| CAL-12T | 0.979 | 0.95 | 0.864 | 0.964 | 0.584 | 0.677 | 0.656 | 0.802 | 0.808 | 0.595 | 0.618 | – | 0.577 | 0.169 | 0.145 | 0.504 | 0.449 | 0.297 | 0.0969 | 0.206 |
| NCI-H23 | 0.977 | 0.836 | 1.09 | 1.21 | 0.853 | 0.545 | 0.611 | 0.547 | 0.513 | – | 0.541 | – | 0.614 | 0.393 | 0.272 | 0.896 | 0.85 | 0.79 | 0.496 | – |
| NCI-H647 | 1.15 | 0.778 | 1.13 | 0.924 | 0.515 | 1.29 | 1.35 | 1.55 | 0.862 | 0.634 | 0.53 | 0.302 | 0.455 | 0.303 | 0.0557 | 0.149 | 0.186 | 0.167 | 0.0838 | – |
| COR-L 105 | 0.759 | 0.628 | 0.699 | 0.677 | 0.309 | 0.913 | 1.02 | 0.779 | 0.902 | 0.372 | 0.386 | 0.419 | 0.434 | 0.334 | 0.344 | 0.357 | 0.326 | 0.235 | 0.248 | 0.335 |
| A-427 | 1.04 | 1.05 | 0.948 | 1.18 | 0.893 | 1.24 | 1.18 | 1.11 | 1.16 | 1.02 | 0.543 | – | 0.535 | 0.492 | 0.319 | 0.797 | 0.527 | 0.46 | 0.159 | 0.513 |
| NCI-H1734 | 0.808 | 0.936 | 0.917 | 1.03 | 0.649 | 1.01 | 0.766 | 0.863 | 0.816 | 0.607 | 0.395 | 0.281 | 0.373 | 0.38 | 0.246 | 0.562 | 0.46 | 0.396 | 0.218 | 0.415 |
| PC-3 [JPC-3] | 0.701 | 0.824 | 0.736 | 0.968 | 0.732 | 0.958 | 0.994 | 1.02 | 1.09 | – | 0.472 | – | 0.573 | 0.472 | 0.458 | 1.03 | 0.893 | – | 0.937 | 0.978 |
| LCLC-97TM1 | 0.473 | 0.357 | 0.841 | 0.72 | 0.204 | 0.168 | 0.218 | 0.176 | 0.199 | 0.232 | 0.224 | – | 0.227 | 0.177 | 0.123 | 0.733 | 0.873 | 0.878 | 0.739 | 0.708 |
| HCC-366 | 0.91 | 0.815 | 1.08 | 1.1 | 1.09 | 0.69 | 0.687 | 0.764 | – | 0.352 | 0.396 | 0.224 | 0.396 | 0.272 | 0.0604 | 0.772 | 0.629 | 0.67 | 0.308 | 0.587 |
| COR-L23 | 1.05 | 0.962 | 1.17 | 0.957 | 0.691 | 0.972 | 0.989 | 1.02 | 0.99 | 0.497 | 0.382 | 0.214 | 0.3 | 0.205 | 0.101 | 0.578 | 0.483 | 0.307 | 0.141 | 0.207 |
| LOU-NH91 | 0.448 | 0.466 | 0.488 | 0.489 | 0.4 | 0.946 | 0.979 | 0.909 | 0.914 | 0.751 | 0.493 | – | 0.519 | 0.581 | 0.52 | 0.569 | 0.505 | 0.378 | 0.458 | – |
| NCI-H441 | 0.509 | 0.442 | 0.392 | 0.581 | 0.367 | 0.473 | 0.683 | 0.647 | 0.5 | 0.388 | 0.283 | 0.2 | 0.23 | 0.185 | 0.146 | 0.609 | 0.536 | 0.565 | 0.229 | 0.547 |
| NCI-H2405 | 1.01 | 0.983 | 0.975 | 1.02 | 0.927 | – | 0.912 | 0.951 | 0.735 | 0.739 | 0.606 | – | 0.508 | 0.55 | 0.329 | 0.204 | 0.225 | 0.211 | 0.172 | 0.228 |
| SK-LU-1 | 0.93 | 0.926 | – | 1.42 | 0.84 | 0.947 | 1.11 | 1.12 | 1.07 | 0.91 | 0.439 | 0.44 | 0.414 | 0.386 | 0.289 | 0.189 | 0.178 | 0.198 | 0.185 | 0.186 |
| NCI-H838 | 0.714 | 0.696 | 1.02 | 0.892 | 0.489 | 0.979 | 0.958 | 1.2 | 1 | 0.507 | 0.237 | 0.223 | 0.228 | 0.2 | 0.119 | 0.322 | 0.245 | 0.267 | 0.19 | – |
| HCC-15 | 0.948 | 1 | 1.14 | 1.15 | 0.926 | 0.867 | 0.849 | 0.843 | 0.866 | 0.661 | 0.677 | 0.747 | 0.788 | 0.679 | 0.292 | 0.642 | 0.612 | 0.511 | 0.308 | – |
| EPLC-272H | – | 0.831 | 0.928 | 0.814 | 0.571 | – | 1.24 | 1.02 | 1.2 | 0.912 | 0.317 | – | 0.367 | 0.274 | 0.301 | 0.504 | 0.34 | 0.252 | 0.138 | – |
| NCI-H1755 | 0.97 | 1.14 | 0.918 | 1.06 | 0.806 | 1.06 | 1.01 | 1 | 1.09 | 0.907 | 0.439 | 0.424 | 0.425 | 0.435 | 0.406 | 0.503 | 0.424 | 0.412 | 0.288 | 0.428 |
| EMC-BAC-2 | 1.06 | 1.05 | 1.1 | 1.16 | 0.965 | 0.851 | 0.803 | 0.793 | 0.797 | 0.813 | 0.561 | – | 0.504 | 0.29 | 0.157 | 0.369 | 0.361 | 0.362 | 0.296 | 0.298 |
| 201T | 1.08 | 1.06 | 1.1 | 1.07 | 0.917 | 1 | 1.05 | 0.994 | 1.05 | 1.01 | 0.365 | 0.358 | 0.364 | 0.316 | 0.31 | 0.574 | 0.581 | 0.568 | 0.318 | 0.551 |
| HARA | 1.08 | 1.01 | 1.26 | 1.16 | 0.866 | 1.06 | 0.933 | 0.945 | 0.668 | 0.243 | 0.32 | 0.243 | 0.295 | 0.222 | 0.202 | 0.273 | 0.283 | 0.206 | 0.218 | 0.319 |
| LC-2-ad | 1.04 | 0.976 | 0.99 | 0.921 | – | 0.905 | 0.923 | 0.836 | 0.692 | 0.452 | 0.49 | 0.514 | 0.469 | 0.417 | 0.305 | 0.697 | 0.651 | 0.199 | 0.161 | – |
| NCI-H661 | 0.732 | 0.927 | – | 0.802 | 0.728 | 0.523 | 0.518 | 0.523 | 0.579 | 0.448 | 0.454 | 0.413 | 0.385 | 0.31 | 0.284 | 1.2 | 0.785 | 0.517 | 0.262 | 0.831 |
| NCI-H2087 | 0.827 | 0.869 | – | 1.11 | 0.729 | 0.929 | 1.01 | 1.09 | 1.06 | 0.7 | 0.281 | 0.243 | 0.244 | 0.163 | 0.16 | 0.837 | 0.918 | 0.493 | 0.27 | 0.676 |
| EKVX | 1.08 | 1.11 | 1.09 | 1.13 | 1 | 0.808 | 1.06 | 1.03 | 1.18 | 0.851 | 0.456 | – | 0.365 | 0.23 | 0.307 | 0.529 | 0.443 | 0.298 | 0.19 | 0.641 |
| NCI-H650 | 0.778 | 0.855 | 0.854 | 0.858 | 0.27 | 0.925 | 0.74 | 0.811 | 0.826 | 0.371 | 0.319 | – | 0.295 | 0.319 | 0.33 | 0.5 | 0.463 | 0.459 | 0.297 | – |
